Reference: patent publication US9340590B2 (priority 2011, dated 2016)
Positions of bridges follow the written chain, without caps; N, C: chain ends. Residues, ends and D or L forms follow the SMILES beside them.

Columns and labels:
Assay in all cases: cell-based
hNav1.7 = hNav1.7 (Homo sapiens, UniProt Q15858); format: cell-based; conditions: IonWorks Quattro, use-dependent block, hNav1.7; read-out: IWQ Use Nav1.7
hNav1.5 = hNav1.5 (Homo sapiens, UniProt Q14524); conditions: IonWorks Quattro, use-dependent block, hNav1.5; read-out: IWQ Use Nav1.5
hNav1.3 = hNav1.3 (Homo sapiens, UniProt Q9NY46); conditions: IonWorks Quattro, use-dependent block, hNav1.3; read-out: IWQ Use Nav1.3
hNav1.3, sequence (Q9NY46 whole entry, looked up): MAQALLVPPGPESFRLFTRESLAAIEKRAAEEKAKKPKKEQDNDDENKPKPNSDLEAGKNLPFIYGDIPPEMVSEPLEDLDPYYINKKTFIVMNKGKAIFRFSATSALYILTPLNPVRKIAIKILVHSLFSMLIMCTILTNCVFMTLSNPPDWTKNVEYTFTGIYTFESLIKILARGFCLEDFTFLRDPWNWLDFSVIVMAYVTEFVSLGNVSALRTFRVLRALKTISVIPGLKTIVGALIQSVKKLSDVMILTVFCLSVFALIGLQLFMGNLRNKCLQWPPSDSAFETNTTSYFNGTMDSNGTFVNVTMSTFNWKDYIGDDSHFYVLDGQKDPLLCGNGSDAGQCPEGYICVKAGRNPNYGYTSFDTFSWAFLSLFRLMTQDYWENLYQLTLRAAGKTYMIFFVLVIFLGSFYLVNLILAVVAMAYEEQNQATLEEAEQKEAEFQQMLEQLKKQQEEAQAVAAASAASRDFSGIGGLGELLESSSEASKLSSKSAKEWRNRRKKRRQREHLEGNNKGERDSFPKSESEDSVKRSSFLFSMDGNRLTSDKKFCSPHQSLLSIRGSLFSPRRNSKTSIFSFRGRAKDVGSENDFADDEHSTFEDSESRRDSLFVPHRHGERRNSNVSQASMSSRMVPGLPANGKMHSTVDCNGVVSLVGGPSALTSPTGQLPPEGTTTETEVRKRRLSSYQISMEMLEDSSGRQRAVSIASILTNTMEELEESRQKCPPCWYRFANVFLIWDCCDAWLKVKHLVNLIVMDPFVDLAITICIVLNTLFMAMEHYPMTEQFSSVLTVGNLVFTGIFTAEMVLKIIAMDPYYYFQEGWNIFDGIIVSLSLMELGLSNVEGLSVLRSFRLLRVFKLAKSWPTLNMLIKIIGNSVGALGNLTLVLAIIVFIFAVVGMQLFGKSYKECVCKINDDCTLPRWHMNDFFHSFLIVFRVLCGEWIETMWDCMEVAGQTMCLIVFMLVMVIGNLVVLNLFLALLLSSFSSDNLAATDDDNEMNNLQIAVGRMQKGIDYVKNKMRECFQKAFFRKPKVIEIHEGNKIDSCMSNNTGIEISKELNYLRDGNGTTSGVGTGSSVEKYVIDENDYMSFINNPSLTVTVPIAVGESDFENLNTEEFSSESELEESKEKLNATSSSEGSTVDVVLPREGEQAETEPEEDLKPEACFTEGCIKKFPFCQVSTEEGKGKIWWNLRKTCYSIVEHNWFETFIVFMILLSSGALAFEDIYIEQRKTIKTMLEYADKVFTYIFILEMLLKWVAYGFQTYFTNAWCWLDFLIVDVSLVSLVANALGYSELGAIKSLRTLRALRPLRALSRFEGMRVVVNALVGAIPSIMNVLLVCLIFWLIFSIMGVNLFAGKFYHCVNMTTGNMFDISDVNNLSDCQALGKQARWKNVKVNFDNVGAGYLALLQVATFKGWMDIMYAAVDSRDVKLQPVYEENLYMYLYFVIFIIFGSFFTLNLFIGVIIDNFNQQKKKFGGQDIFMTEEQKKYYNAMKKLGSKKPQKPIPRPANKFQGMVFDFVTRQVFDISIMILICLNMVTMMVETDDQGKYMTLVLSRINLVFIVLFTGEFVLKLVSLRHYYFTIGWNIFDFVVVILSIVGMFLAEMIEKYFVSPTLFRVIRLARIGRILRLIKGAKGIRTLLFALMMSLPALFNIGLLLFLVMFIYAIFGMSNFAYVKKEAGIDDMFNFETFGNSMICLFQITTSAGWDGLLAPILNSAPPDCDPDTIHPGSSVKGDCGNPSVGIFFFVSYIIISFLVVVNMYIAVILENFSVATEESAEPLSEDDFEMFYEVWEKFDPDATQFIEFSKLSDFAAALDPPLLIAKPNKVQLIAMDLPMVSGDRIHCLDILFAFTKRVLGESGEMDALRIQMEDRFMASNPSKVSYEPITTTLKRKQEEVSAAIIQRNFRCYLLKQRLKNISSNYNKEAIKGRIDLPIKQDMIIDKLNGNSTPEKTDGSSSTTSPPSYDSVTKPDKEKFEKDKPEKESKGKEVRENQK

hNav1.7, sequence (Q15858 whole entry, looked up): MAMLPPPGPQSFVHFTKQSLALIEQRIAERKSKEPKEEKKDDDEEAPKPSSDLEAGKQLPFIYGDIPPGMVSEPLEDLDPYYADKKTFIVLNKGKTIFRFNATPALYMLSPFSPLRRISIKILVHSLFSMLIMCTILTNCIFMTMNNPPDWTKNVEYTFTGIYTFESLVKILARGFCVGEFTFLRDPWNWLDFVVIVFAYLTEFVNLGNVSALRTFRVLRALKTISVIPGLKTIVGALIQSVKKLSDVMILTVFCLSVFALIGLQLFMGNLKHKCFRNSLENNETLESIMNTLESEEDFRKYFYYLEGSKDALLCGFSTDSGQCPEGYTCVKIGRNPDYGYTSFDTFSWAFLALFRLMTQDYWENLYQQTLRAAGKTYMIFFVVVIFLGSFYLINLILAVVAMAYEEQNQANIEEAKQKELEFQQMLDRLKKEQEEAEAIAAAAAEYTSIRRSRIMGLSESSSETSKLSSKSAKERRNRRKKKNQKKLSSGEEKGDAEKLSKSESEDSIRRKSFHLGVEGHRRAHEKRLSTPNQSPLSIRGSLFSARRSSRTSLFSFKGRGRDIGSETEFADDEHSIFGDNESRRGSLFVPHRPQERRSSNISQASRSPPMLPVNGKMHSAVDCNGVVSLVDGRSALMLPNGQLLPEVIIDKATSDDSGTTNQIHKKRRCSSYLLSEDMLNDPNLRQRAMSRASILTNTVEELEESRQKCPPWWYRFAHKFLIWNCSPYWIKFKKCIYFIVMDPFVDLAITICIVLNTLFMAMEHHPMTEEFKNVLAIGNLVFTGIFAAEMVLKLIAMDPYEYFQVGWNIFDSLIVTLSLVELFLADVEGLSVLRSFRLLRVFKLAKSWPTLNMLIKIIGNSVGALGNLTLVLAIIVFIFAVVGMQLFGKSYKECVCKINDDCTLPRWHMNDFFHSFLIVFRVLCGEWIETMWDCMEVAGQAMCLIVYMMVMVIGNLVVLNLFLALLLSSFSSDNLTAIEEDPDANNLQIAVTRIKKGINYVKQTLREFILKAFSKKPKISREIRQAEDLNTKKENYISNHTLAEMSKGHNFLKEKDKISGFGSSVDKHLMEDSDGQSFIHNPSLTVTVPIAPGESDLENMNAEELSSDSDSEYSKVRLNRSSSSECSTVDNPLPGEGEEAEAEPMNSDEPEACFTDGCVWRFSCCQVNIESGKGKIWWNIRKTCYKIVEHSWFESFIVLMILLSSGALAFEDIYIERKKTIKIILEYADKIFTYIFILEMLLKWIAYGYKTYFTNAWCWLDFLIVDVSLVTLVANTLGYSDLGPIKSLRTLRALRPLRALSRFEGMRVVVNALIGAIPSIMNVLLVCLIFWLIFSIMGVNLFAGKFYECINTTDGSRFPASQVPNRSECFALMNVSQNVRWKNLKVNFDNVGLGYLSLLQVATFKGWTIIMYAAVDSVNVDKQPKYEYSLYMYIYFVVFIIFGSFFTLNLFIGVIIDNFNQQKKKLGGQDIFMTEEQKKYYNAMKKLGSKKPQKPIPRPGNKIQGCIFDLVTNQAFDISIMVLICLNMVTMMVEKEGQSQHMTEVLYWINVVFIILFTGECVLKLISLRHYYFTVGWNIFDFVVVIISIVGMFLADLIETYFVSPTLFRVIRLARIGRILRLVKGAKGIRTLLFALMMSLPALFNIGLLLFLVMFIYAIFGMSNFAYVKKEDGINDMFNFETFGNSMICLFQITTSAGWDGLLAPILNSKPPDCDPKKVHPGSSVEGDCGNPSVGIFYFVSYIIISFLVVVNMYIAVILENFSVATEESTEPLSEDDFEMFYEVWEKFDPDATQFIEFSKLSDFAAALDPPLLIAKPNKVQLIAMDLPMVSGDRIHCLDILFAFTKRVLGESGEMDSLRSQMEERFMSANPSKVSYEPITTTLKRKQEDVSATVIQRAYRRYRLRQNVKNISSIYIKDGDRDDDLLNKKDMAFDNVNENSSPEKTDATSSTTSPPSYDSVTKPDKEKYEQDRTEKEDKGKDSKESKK

Q: How did the IC50 (hNav1.7) turn out when `CC[C@H](C)[C@@H]1NC(=O)[C@@H]2CSSC[C@@H]3NC(=O)[C@H](C(C)C)NC(=O)[C@H](CC(C)C)NC(=O)[C@H](CC(N)=O)NC(=O)[C@@H]4CCCN4C(=O)[C@H](CCCNC(=N)N)NC(=O)[C@H](CSSC[C@H](NC(=O)[C@@H](N)CC(=O)O)C(=O)N[C@@H](CC(C)C)C(=O)NCC(=O)N[C@@H](C)C(=O)N[C@@H](CC(C)C)C(=O)N[C@@H](CCCNC(=N)N)C(=O)N[C@@H](CCCCN)C(=O)N2)NC(=O)[C@H](CSSC[C@@H](C(=O)N[C@@H](CCCCN)C(=O)N[C@@H](Cc2ccc(O)cc2)C(=O)N[C@H](C(=O)N[C@@H](Cc2ccccc2)C(=O)O)C(C)C)NC(=O)[C@H](Cc2c[nH]c4ccccc24)NC(=O)[C@H](CCC(=O)O)NC(=O)[C@H](Cc2c[nH]cn2)NC(=O)[C@H]([C@@H](C)O)NC(=O)[C@H](CCCNC(=N)N)NC(=O)[C@H](CO)NC3=O)NC(=O)[C@H](CCCCN)NC(=O)[C@H](CC(=O)O)NC(=O)[C@H](CC(N)=O)NC(=O)[C@H](CC(=O)O)NC(=O)[C@@H]2CCCN2C1=O` [compound 855] was run?
A: > 5 µM

Q: And the IC50 (hNav1.5)?
A: > 5 µM

Q: What about the IC50 (hNav1.3) of the same compound?
A: > 5 µM

Q: Which IC50 (hNav1.7) does the source give for `CC[C@H](C)[C@@H]1NC(=O)[C@@H]2CSSC[C@@H]3NC(=O)[C@H](C(C)C)NC(=O)[C@H](CC(C)C)NC(=O)[C@H](CC(N)=O)NC(=O)[C@@H]4CCCN4C(=O)[C@H](CCCNC(=N)N)NC(=O)[C@H](CSSC[C@H](NC(=O)[C@@H](N)CC(=O)O)C(=O)N[C@@H](CC(C)C)C(=O)NCC(=O)N[C@@H](C)C(=O)N[C@@H](CC(C)C)C(=O)N[C@@H](CCCNC(=N)N)C(=O)N[C@@H](CCCCN)C(=O)N2)NC(=O)[C@H](CSSC[C@@H](C(=O)N[C@@H](CCCCN)C(=O)N[C@@H](Cc2ccc(O)cc2)C(=O)N[C@H](C(=O)N[C@@H](Cc2ccccc2)C(=O)O)C(C)C)NC(=O)[C@H](Cc2c[nH]c4ccccc24)NC(=O)[C@H](CC(C)C)NC(=O)[C@H](Cc2c[nH]cn2)NC(=O)[C@H]([C@@H](C)O)NC(=O)[C@H](CCCNC(=N)N)NC(=O)[C@H](CO)NC3=O)NC(=O)[C@H](CCCCN)NC(=O)[C@H](CC(=O)O)NC(=O)[C@H](CC(N)=O)NC(=O)[C@H](CC(=O)O)NC(=O)[C@@H]2CCCN2C1=O` [compound 856] (H-DCLGALRKCIPDNDKCCRPNLVCSRTHLWCKYVF-OH; disulfide 2-17, 9-23, 16-30) here?
A: 4.1 µM

Q: What about the IC50 (hNav1.5) of the same compound?
A: > 5 µM

Q: And the IC50 (hNav1.3)?
A: 4.1 µM

Q: With `CC[C@H](C)[C@@H]1NC(=O)[C@@H]2CSSC[C@@H]3NC(=O)[C@H](C(C)C)NC(=O)[C@H](CC(C)C)NC(=O)[C@H](CC(N)=O)NC(=O)[C@@H]4CCCN4C(=O)[C@H](CCCNC(=N)N)NC(=O)[C@H](CSSC[C@H](NC(=O)[C@@H](N)CC(=O)O)C(=O)N[C@@H](CC(C)C)C(=O)NCC(=O)N[C@@H](C)C(=O)N[C@@H](CC(C)C)C(=O)N[C@@H](CCCNC(=N)N)C(=O)N[C@@H](CCCCN)C(=O)N2)NC(=O)[C@H](CSSC[C@@H](C(=O)N[C@@H](CCCCN)C(=O)N[C@@H](Cc2ccc(O)cc2)C(=O)N[C@H](C(=O)N[C@@H](Cc2ccccc2)C(=O)O)C(C)C)NC(=O)[C@H](Cc2c[nH]c4ccccc24)NC(=O)[C@H](CCSC)NC(=O)[C@H](Cc2c[nH]cn2)NC(=O)[C@H]([C@@H](C)O)NC(=O)[C@H](CCCNC(=N)N)NC(=O)[C@H](CO)NC3=O)NC(=O)[C@H](CCCCN)NC(=O)[C@H](CC(=O)O)NC(=O)[C@H](CC(N)=O)NC(=O)[C@H](CC(=O)O)NC(=O)[C@@H]2CCCN2C1=O` [compound 857] (H-DCLGALRKCIPDNDKCCRPNLVCSRTHMWCKYVF-OH; disulfide 2-17, 9-23, 16-30) as the compound, how does the IC50 (hNav1.7) read?
A: > 5 µM

Q: What about the IC50 (hNav1.5) of the same compound?
A: > 5 µM

Q: What about the IC50 (hNav1.3) of the same compound?
A: > 5 µM

Q: What does the source list for `CC[C@H](C)[C@@H]1NC(=O)[C@@H]2CSSC[C@@H]3NC(=O)[C@H](C(C)C)NC(=O)[C@H](CC(C)C)NC(=O)[C@H](CC(N)=O)NC(=O)[C@@H]4CCCN4C(=O)[C@H](CCCNC(=N)N)NC(=O)[C@H](CSSC[C@H](NC(=O)[C@@H](N)CC(=O)O)C(=O)N[C@@H](CC(C)C)C(=O)NCC(=O)N[C@@H](C)C(=O)N[C@@H](CC(C)C)C(=O)N[C@@H](CCCNC(=N)N)C(=O)N[C@@H](CCCCN)C(=O)N2)NC(=O)[C@H](CSSC[C@@H](C(=O)N[C@@H](CCCCN)C(=O)N[C@@H](Cc2ccc(O)cc2)C(=O)N[C@H](C(=O)N[C@@H](Cc2ccccc2)C(=O)O)C(C)C)NC(=O)[C@H](Cc2c[nH]c4ccccc24)NC(=O)[C@H](CCC(N)=O)NC(=O)[C@H](Cc2c[nH]cn2)NC(=O)[C@H]([C@@H](C)O)NC(=O)[C@H](CCCNC(=N)N)NC(=O)[C@H](CO)NC3=O)NC(=O)[C@H](CCCCN)NC(=O)[C@H](CC(=O)O)NC(=O)[C@H](CC(N)=O)NC(=O)[C@H](CC(=O)O)NC(=O)[C@@H]2CCCN2C1=O` [compound 858] (H-DCLGALRKCIPDNDKCCRPNLVCSRTHQWCKYVF-OH; disulfide 2-17, 9-23, 16-30)?
A: IC50 (hNav1.7): > 5 µM; IC50 (hNav1.5): > 5 µM; IC50 (hNav1.3): > 5 µM

Q: Which results are given for `CC[C@H](C)[C@@H]1NC(=O)[C@@H]2CSSC[C@@H]3NC(=O)[C@H](C(C)C)NC(=O)[C@H](CC(C)C)NC(=O)[C@H](CC(N)=O)NC(=O)[C@@H]4CCCN4C(=O)[C@H](CCCNC(=N)N)NC(=O)[C@H](CSSC[C@H](NC(=O)[C@@H](N)CC(=O)O)C(=O)N[C@@H](CC(C)C)C(=O)NCC(=O)N[C@@H](C)C(=O)N[C@@H](CC(C)C)C(=O)N[C@@H](CCCNC(=N)N)C(=O)N[C@@H](CCCCN)C(=O)N2)NC(=O)[C@H](CSSC[C@@H](C(=O)N[C@@H](CCCCN)C(=O)N[C@@H](Cc2ccc(O)cc2)C(=O)N[C@H](C(=O)N[C@@H](Cc2ccccc2)C(=O)O)C(C)C)NC(=O)[C@H](Cc2c[nH]c4ccccc24)NC(=O)[C@H](CO)NC(=O)[C@H](Cc2c[nH]cn2)NC(=O)[C@H]([C@@H](C)O)NC(=O)[C@H](CCCNC(=N)N)NC(=O)[C@H](CO)NC3=O)NC(=O)[C@H](CCCCN)NC(=O)[C@H](CC(=O)O)NC(=O)[C@H](CC(N)=O)NC(=O)[C@H](CC(=O)O)NC(=O)[C@@H]2CCCN2C1=O` [compound 859] (H-DCLGALRKCIPDNDKCCRPNLVCSRTHSWCKYVF-OH; disulfide 2-17, 9-23, 16-30)?
A: IC50 (hNav1.7): > 5 µM; IC50 (hNav1.5): > 5 µM; IC50 (hNav1.3): > 5 µM

Q: With `CC[C@H](C)[C@@H]1NC(=O)[C@@H]2CSSC[C@@H]3NC(=O)[C@H](C(C)C)NC(=O)[C@H](CC(C)C)NC(=O)[C@H](CC(N)=O)NC(=O)[C@@H]4CCCN4C(=O)[C@H](CCCNC(=N)N)NC(=O)[C@H](CSSC[C@H](NC(=O)[C@@H](N)CC(=O)O)C(=O)N[C@@H](CC(C)C)C(=O)NCC(=O)N[C@@H](C)C(=O)N[C@@H](CC(C)C)C(=O)N[C@@H](CCCNC(=N)N)C(=O)N[C@@H](CCCCN)C(=O)N2)NC(=O)[C@H](CSSC[C@@H](C(=O)N[C@@H](CCCCN)C(=O)N[C@@H](Cc2ccc(O)cc2)C(=O)N[C@H](C(=O)N[C@@H](Cc2ccccc2)C(=O)O)C(C)C)NC(=O)[C@H](Cc2c[nH]c4ccccc24)NC(=O)[C@H](CCCNC(=N)N)NC(=O)[C@H](Cc2c[nH]cn2)NC(=O)[C@H]([C@@H](C)O)NC(=O)[C@H](CCCNC(=N)N)NC(=O)[C@H](CO)NC3=O)NC(=O)[C@H](CCCCN)NC(=O)[C@H](CC(=O)O)NC(=O)[C@H](C)NC(=O)[C@H](CC(=O)O)NC(=O)[C@@H]2CCCN2C1=O` [compound 860] (H-DCLGALRKCIPDADKCCRPNLVCSRTHRWCKYVF-OH; disulfide 2-17, 9-23, 16-30) as the compound, how does the IC50 (hNav1.7) read?
A: > 5 µM

Q: And the IC50 (hNav1.5)?
A: > 5 µM

Q: And the IC50 (hNav1.3)?
A: 4.5 µM

Q: With `CC[C@H](C)[C@@H]1NC(=O)[C@@H]2CSSC[C@@H]3NC(=O)[C@H](C(C)C)NC(=O)[C@H](CC(C)C)NC(=O)[C@H](CC(N)=O)NC(=O)[C@@H]4CCCN4C(=O)[C@H](CCCNC(=N)N)NC(=O)[C@H](CSSC[C@H](NC(=O)[C@@H](N)CC(=O)O)C(=O)N[C@@H](CC(C)C)C(=O)NCC(=O)N[C@@H](C)C(=O)N[C@@H](CC(C)C)C(=O)N[C@@H](CCCNC(=N)N)C(=O)N[C@@H](CCCCN)C(=O)N2)NC(=O)[C@H](CSSC[C@@H](C(=O)N[C@@H](CCCCN)C(=O)N[C@@H](Cc2ccc(O)cc2)C(=O)N[C@H](C(=O)N[C@@H](Cc2ccccc2)C(=O)O)C(C)C)NC(=O)[C@H](Cc2c[nH]c4ccccc24)NC(=O)[C@H](CCCNC(=N)N)NC(=O)[C@H](Cc2c[nH]cn2)NC(=O)[C@H]([C@@H](C)O)NC(=O)[C@H](CCCNC(=N)N)NC(=O)[C@H](CO)NC3=O)NC(=O)[C@H](CCCCN)NC(=O)[C@H](CC(=O)O)NC(=O)[C@H](CC(=O)O)NC(=O)[C@H](CC(=O)O)NC(=O)[C@@H]2CCCN2C1=O` [compound 861] (H-DCLGALRKCIPDDDKCCRPNLVCSRTHRWCKYVF-OH; disulfide 2-17, 9-23, 16-30) as the compound, how does the IC50 (hNav1.7) read?
A: > 5 µM

Q: And the IC50 (hNav1.5)?
A: > 5 µM

Q: What about the IC50 (hNav1.3) of the same compound?
A: > 5 µM

Q: How did the IC50 (hNav1.7) turn out when `CC[C@H](C)[C@@H]1NC(=O)[C@@H]2CSSC[C@@H]3NC(=O)[C@H](C(C)C)NC(=O)[C@H](CC(C)C)NC(=O)[C@H](CC(N)=O)NC(=O)[C@@H]4CCCN4C(=O)[C@H](CCCNC(=N)N)NC(=O)[C@H](CSSC[C@H](NC(=O)[C@@H](N)CC(=O)O)C(=O)N[C@@H](CC(C)C)C(=O)NCC(=O)N[C@@H](C)C(=O)N[C@@H](CC(C)C)C(=O)N[C@@H](CCCNC(=N)N)C(=O)N[C@@H](CCCCN)C(=O)N2)NC(=O)[C@H](CSSC[C@@H](C(=O)N[C@@H](CCCCN)C(=O)N[C@@H](Cc2ccc(O)cc2)C(=O)N[C@H](C(=O)N[C@@H](Cc2ccccc2)C(=O)O)C(C)C)NC(=O)[C@H](Cc2c[nH]c4ccccc24)NC(=O)[C@H](CCCNC(=N)N)NC(=O)[C@H](Cc2c[nH]cn2)NC(=O)[C@H]([C@@H](C)O)NC(=O)[C@H](CCCNC(=N)N)NC(=O)[C@H](CO)NC3=O)NC(=O)[C@H](CCCCN)NC(=O)[C@H](CC(=O)O)NC(=O)[C@H](CCC(=O)O)NC(=O)[C@H](CC(=O)O)NC(=O)[C@@H]2CCCN2C1=O` [compound 862] (H-DCLGALRKCIPDEDKCCRPNLVCSRTHRWCKYVF-OH; disulfide 2-17, 9-23, 16-30) was run?
A: > 5 µM

Q: And the IC50 (hNav1.5)?
A: > 5 µM

Q: And the IC50 (hNav1.3)?
A: > 5 µM
